Here are results for 1 molecule from patent US20080249132A1, “Piperidine Carboxyamide Derivate Suitable as Tachykinin Receptor Antagonist” (priority 2005, published 2008).

This assay deals with T1, recombinant human NK1 receptors (Homo sapiens, UniProt P25103).
T1 construct: expressed in transfected cells; membrane preparation
Nature of the assay: NK1 receptor filtration binding assay, displacement of [3H]-Substance P. The following applies: displacement of [3H]-substance P from recombinant human NK1 receptors expressed in CHO cell membranes; average of at least two determinations; read-out: pKi (negative logarithm of the inhibition constant Ki) (converted). The procedure: NK1-receptor binding affinity has been determined in vitro in filtration binding assay by measuring the compounds' ability to displace [^3H]-Substance P (SP) from recombinant human NK1 receptors stably expressed in Chinese Hamster Ovary (CHO) cell membranes prepared by using a modification of the method described by Beattie D. T. et al. (Br. J. Pharmacol, 116:3149-3157, 1995).
Briefly, ligand binding was performed in 0.4 ml of 50 mM HEPES, pH 7.4, containing 3 mM MnCl2, 0.02% BSA, 0.5 nM [^3H]-Substance P (30-56 Ci/mmol Amersham), a final membrane protein concentration of 30-50 μg/ml, and the test compounds. The incubation proceeded at room temperature for 40 min and was stopped by filtration. Non-specific binding was determined using excess of substance P (1 μM) and represents about 6-10% of the total binding. IC50 values of each compound were determined by an 8-point 10×-dilution inhibition curve. pKi values were calculated using the KD of [^3H]-Substance P determined in a separate experiment.
The affinity of the compound of the invention for NK1 receptor was determined using the NK1 receptor binding affinity method measuring in vitro the compounds' ability to displace [3H]—substance P (SP) from recombinant human NK1 receptors expressed in Chinese Hamster Ovary (CHO) cell membranes. […]
(In a radioligand displacement assay an active substance lowers the binding of a labelled ligand.)

T1 sequence (P25103 whole entry): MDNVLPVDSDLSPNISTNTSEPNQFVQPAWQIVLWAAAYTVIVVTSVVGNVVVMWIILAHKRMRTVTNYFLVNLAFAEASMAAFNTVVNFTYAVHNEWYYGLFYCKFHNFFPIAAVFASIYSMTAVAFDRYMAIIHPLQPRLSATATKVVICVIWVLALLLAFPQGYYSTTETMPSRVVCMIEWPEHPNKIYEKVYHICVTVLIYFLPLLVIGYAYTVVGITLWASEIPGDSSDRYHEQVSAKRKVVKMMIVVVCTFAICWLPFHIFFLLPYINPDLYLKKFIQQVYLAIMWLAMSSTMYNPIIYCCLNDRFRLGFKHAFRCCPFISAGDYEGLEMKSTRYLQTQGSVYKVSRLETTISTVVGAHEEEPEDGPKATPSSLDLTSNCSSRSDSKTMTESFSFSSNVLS

Usually Ki stands for the equilibrium dissociation constant of an inhibitor or competing ligand from its target. Regarding `CC(=O)NCCN[C@H]1CCN(C(=O)N(C)[C@H](C)c2cc(C(F)(F)F)cc(C(F)(F)F)c2)[C@@H](c2ccc(F)cc2C)C1` [Example 1, (2R,4S)-4-{[2-(acetylamino)ethyl]amino}-N-{(1R)-1-(3,5-bis(trifluoromethyl)phenyl)ethyl}-2-(4-fluoro-2-methylphenyl)-N-methyl-1-piperidinecarboxamide], the Ki is 0.02 nM.
